Literature values in patent publication US10568927B2, “Methods and compositions comprising desmopressin in combination with a beta-3-adrenergic receptor agonist” (Serenity Pharmaceuticals, LLC, priority 2013, dated 2020).

Settings: human, in vivo

half-life (known clearance rate): 1.5 to 2.0 h
SMILES: NC(=O)CC[C@@H]1NC(=O)[C@H](Cc2ccccc2)NC(=O)[C@H](Cc2ccc(O)cc2)NC(=O)CCSSC[C@@H](C(=O)N2CCC[C@H]2C(=O)N[C@H](CCCN=C(N)N)C(=O)NCC(N)=O)NC(=O)[C@H](CC(N)=O)NC1=O [desmopressin, 1-desamino-8-D-arginine vasopressin]
